Measured values taken from patent US5430031A, “Serotoninergic ergoline derivatives” (Farmitalia Carlo Erba S.r.l., priority 1992, dated 1995).
pIC50: −log10 of the molar value. Where two headings read alike, the source gives them in different places.

How the values were obtained:
[1] = biological target: T1, serotonin 1A (5-HT1A) receptor (Rattus norvegicus, UniProt P19327); assay: 5-HT1A receptor affinity, 3H-8-OH-DPAT binding test (Experiment 1)
T1 construct: Freezed hippocampus dissected out from rats were homogenized; from tissue; host or cells: rat hippocampus, crude synaptosome membranes
T1 sequence (P19327 1-422): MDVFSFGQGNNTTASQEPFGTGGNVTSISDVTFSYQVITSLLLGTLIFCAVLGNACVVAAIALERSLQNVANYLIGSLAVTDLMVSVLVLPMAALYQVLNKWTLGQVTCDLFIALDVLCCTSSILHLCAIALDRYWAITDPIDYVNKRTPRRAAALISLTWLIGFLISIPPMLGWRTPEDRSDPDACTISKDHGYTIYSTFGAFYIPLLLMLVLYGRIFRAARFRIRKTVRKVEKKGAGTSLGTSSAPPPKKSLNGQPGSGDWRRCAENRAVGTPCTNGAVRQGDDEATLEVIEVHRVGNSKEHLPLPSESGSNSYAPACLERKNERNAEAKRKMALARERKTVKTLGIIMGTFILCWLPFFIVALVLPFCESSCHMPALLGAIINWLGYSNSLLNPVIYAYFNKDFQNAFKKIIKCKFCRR
Method: Experiment 1: affinity for serotonin 1A (5-HT1A) receptor [^3 H-8-Hydroxy-2-dipropylaminotetralin (^3 H-8-OH-DPAT)binding test]
After completion of reaction, the suspension was centrifuged at 40,000×g for 20 minutes at 0° C.
Then to the mixture was added 5 ml of ice-cold 50 mM Tris-CHI buffer (pH 7.4) rapidly vacuum-filtered through Whatman® GF/B filters and was washed twice with 5 ml of the same buffer. The radioactivity of the residue remaining on the filters was measured by liquid scintillation counter. Nonspecific binding was determined under the presence of 10^-5 M serotonin (5-HT).

dopamine 2 (D2) receptor = biological target: T2, dopamine 2 (D2) receptor (Rattus norvegicus, UniProt P61169); assay: D2 receptor affinity, 3H-Spiperone binding test (Experiment 3); details: 3H-Spiperone 0.2 nM, corpus striatum, 37° C., 20 minutes; read-out: RECEPTOR BINDING I-C50 D2
T2 construct: Freezed corpus striatum dissected out from rats were homogenized; from tissue; host or cells: rat corpus striatum, crude synaptosome membranes
T2 sequence (P61169 whole entry): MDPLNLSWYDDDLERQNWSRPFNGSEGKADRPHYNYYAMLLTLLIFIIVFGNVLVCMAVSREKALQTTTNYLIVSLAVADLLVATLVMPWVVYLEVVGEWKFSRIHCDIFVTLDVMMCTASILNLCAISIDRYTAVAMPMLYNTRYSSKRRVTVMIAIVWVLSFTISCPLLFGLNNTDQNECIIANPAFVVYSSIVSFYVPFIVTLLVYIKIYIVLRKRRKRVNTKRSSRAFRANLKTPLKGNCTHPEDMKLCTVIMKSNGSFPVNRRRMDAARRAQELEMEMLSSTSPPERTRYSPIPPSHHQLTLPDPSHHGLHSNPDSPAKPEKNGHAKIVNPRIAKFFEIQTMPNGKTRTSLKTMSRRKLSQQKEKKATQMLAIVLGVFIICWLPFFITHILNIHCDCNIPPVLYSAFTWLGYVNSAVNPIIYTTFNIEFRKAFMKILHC
Method: Experiment 3: affinity for dopamine 2 (D2)receptor (^3 H-Spiperone binding test.)
The resulting pellet was homogenized in 150 volumes of 50 mM Tris-HCl buffer (PH 7.1) containing 120 mM potassium chloride, 2 mM calcium chloride, 1 mM magnesium chloride, 0,1% ascorbic acid and 10 μM pargyline. The suspension was incubated at 37° C. for 10 minutes and then provided as synaptosome membranes solution for the next assays.
To the aliquots (900μ) of synaptosome membranes solution were added 50 μl of ^3 H-Spiperone solution at the terminal concentration of 0.2 nM and 50 μl of test compound solution or 50 μl of its medium, and incubated at 37° C. for 20 minutes. After completion of the reaction, the mixture was rapidly vacuum-filtered through Whatman® GF/B filters. The filters were washed three times with 5 ml of the above buffer, and then the radioactivity of the residue remaining on the filters was measured by liquid scintillation counter.

[2] = biological target: serotonin 2 (5-HT2) receptor (Rattus norvegicus, UniProt P14842); assay: 5-HT2 receptor affinity, 3H-Ketanserin binding test (Experiment 2)
Sequence of serotonin 2 (5-HT2) receptor (P14842 whole entry): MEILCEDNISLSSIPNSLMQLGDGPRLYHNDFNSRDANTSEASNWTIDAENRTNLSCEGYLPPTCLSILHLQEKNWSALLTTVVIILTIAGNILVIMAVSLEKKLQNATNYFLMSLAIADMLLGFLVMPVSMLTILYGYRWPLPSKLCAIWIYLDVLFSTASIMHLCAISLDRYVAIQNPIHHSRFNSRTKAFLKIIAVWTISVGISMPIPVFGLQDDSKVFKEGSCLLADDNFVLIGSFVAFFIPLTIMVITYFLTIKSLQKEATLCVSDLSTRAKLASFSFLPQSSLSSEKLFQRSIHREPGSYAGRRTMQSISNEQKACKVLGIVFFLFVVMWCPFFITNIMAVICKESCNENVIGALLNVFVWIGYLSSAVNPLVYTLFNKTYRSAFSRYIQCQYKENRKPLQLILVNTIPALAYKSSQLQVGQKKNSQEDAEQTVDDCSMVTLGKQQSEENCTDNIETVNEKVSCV
Method: Experiment 2: affinity for serotonin 2(5-HT2)receptor (^3 H-Ketanserin binding test).
The suspension was centrifuged at 40,000×g for 20 minutes at 0° C. again. The resulting pellet was homogenized in 100 volumes of the above buffer and provided as synaptosome membranes solution for the next assay.
To the aliquots (900μ) of synaptosome membranes solution were added 50 μl solution of ^3 H-Ketanserin solution at the terminal concentration of 0.2 mM and 50 μl of test compound or its medium, and incubated at 37° C. for 20 minutes. After completion of the reaction, the mixture was rapidly vacuum-filtered through Whatman® GF/B filters. The filters were washed three times with 5 ml of the above buffer, and then the radioactivity of the residue remaining on the filters was measured by liquid scintillation counter. Non specific binding was determined under the presence of 10 μM of mianserin.

group-caged mice = assay: stress-induced hyperthermia, screening model of anxiety; assay type: in vivo; details: Mouse, ip
Description: This procedure is based upon the antagonism of an increase in rectal temperature observed in group-caged mice as they are being removed from their cohorts.

COC(=O)C1CC2c3cc(C(C)(C)C)cc4[nH]c(SC)c(c34)CC2N(C)C1 (stereo not drawn) [Example 1, 2-Thiomethyl-6-methyl-8β-methoxycarbonyl (13,14)-t-butyl-ergoline]
pIC50 ([1]; read-out: RECEPTOR BINDING I-C50 5-HT1A, 3H-8-OH-DPAT 0.2 nM, rat hippocampus, 37° C., 10 minutes): 7.52 | pIC50 (dopamine 2 (D2) receptor): 5.28 | pIC50 ([2]; read-out: RECEPTOR BINDING I-C50 5-HT2, 3H-Ketanserin 0.2 mM (so in the source), rat cerebral cortex, 37° C., 20 minutes): 5.17

COC(=O)[C@@H]1C[C@@H]2c3cc(C(C)(C)C)cc4[nH]cc(c34)C[C@H]2N(C)C1 [Example 2, 6-Methyl-8β-methoxycarbonyl-13-t-butyl-ergoline]
pIC50 [1]: 8.00 | pIC50 (dopamine 2 (D2) receptor): 5.56 | pIC50 [2]: 5.73

CN1C[C@H](CO)C[C@@H]2c3cc(C(C)(C)C)cc4[nH]cc(c34)C[C@H]21 [Example 3, 6-Methyl-8β-hydroxymethyl-13-t-butyl-ergoline]
pIC50 [1]: 8.00 | pIC50 (dopamine 2 (D2) receptor): 5.35 | pIC50 [2]: 5.96

CN1C[C@H](CN)C[C@@H]2c3cc(C(C)(C)C)cc4[nH]cc(c34)C[C@H]21 [Example 4, 6-Methyl-8β-aminomethyl-13-t-butyl-ergoline]
pIC50 [1]: 8.00 | pIC50 (dopamine 2 (D2) receptor): 5.48 | pIC50 [2]: 6.15

CN1CC(CNC(=O)Cc2ccccc2)CC2c3cc(C(C)(C)C)cc4[nH]cc(c34)CC21 (stereo not drawn) [Example 6, 6-Methyl-8β.phenylacetylaminomethyl-13-t-butyl-ergoline]
pIC50 [1]: 8.10 | pIC50 (dopamine 2 (D2) receptor): 5.90 | ED50 (group-caged mice): 0.06 mg/kg | pIC50 [2]: 6.15

CN1C[C@H](CNC(=O)C(C)(C)C)C[C@@H]2c3cc(C(C)(C)C)cc4[nH]cc(c34)C[C@H]21 [Example 7, 6-Methyl-8β-pivaloylaminomethyl-13-t-butyl-ergoline]
pIC50 [1]: 8.00 | pIC50 (dopamine 2 (D2) receptor): 5.29 | ED50 (group-caged mice): 0.06 mg/kg | pIC50 [2]: 5.92

CN1C[C@H](CNC(=O)c2ccncc2)C[C@@H]2c3cc(C(C)(C)C)cc4[nH]cc(c34)C[C@H]21 [Example 8, 6-Methyl-8β-isonicotinoylaminomethyl-13-t-butyl-ergoline]
pIC50 [1]: 7.10 | pIC50 (dopamine 2 (D2) receptor): 5.54 | pIC50 [2]: 5.68

CN1C[C@H](CNC(=O)c2cncc(Br)c2)C[C@@H]2c3cc(C(C)(C)C)cc4[nH]cc(c34)C[C@H]21 [Example 9, 6-methyl-8β-(5-bromo-nicotinoyl)aminomethyl-13-t-butyl-ergoline]
pIC50 [1]: 8.00 | pIC50 (dopamine 2 (D2) receptor): 5.68 | ED50 (group-caged mice): 0.03 mg/kg | pIC50 [2]: 5.96

CCOC(=O)NC[C@@H]1C[C@@H]2c3cc(C(C)(C)C)cc4[nH]cc(c34)C[C@H]2N(C)C1 [Example 11, 6-Methyl-8β-ethoxycarbonylaminomethyl-13-t-butyl-ergoline]
pIC50 [1]: 7.30 | pIC50 (dopamine 2 (D2) receptor): 5.51 | ED50 (group-caged mice): 0.06 mg/kg | pIC50 [2]: 5.46

CN1C[C@H](CNC(=O)Nc2ccccc2)C[C@@H]2c3cc(C(C)(C)C)cc4[nH]cc(c34)C[C@H]21 [Example 12, 6-Methyl-8β-phenylaminocarbonylaminomethyl-13-t-butyl-ergoline]
pIC50 [1]: 8.00 | pIC50 (dopamine 2 (D2) receptor): 5.68 | pIC50 [2]: 5.21

CN1C[C@H](CNC(=O)C2CCCCC2)C[C@@H]2c3cc(C(C)(C)C)cc4[nH]cc(c34)C[C@H]21 [Example 13, 6-Methyl-8β-cyclohexylcarbonylaminomethyl-13-t-butyl-ergoline]
pIC50 [1]: 8.30 | pIC50 (dopamine 2 (D2) receptor): 5.77 | pIC50 [2]: 5.96

Cc1cc(C(=O)NCC2CC3c4cc(C(C)(C)C)cc5[nH]cc(c45)CC3N(C)C2)nn1C (stereo not drawn) [Example 16, 6-Methyl-8β-(1,5-dimethyl-3-pyrazoyl)aminomethyl-13-t-butyl-ergoline]
ED50 (group-caged mice): 0.06 mg/kg

Cc1nc(C(=O)NCC2CC3c4cc(C(C)(C)C)cc5[nH]cc(c45)CC3N(C)C2)cs1 (stereo not drawn) [Example 17, 6-Methyl-8β-(2-methyl-4-thiazoyl)aminomethyl-13-t-butyl-ergoline]
ED50 (group-caged mice): 0.06 mg/kg
